The values below come from patent publication US20070191402A1, “Method of searching substrate having antidiabetic activity” (KYOWA HAKKO KOGYO CO., LTD., priority 2002, published 2007).

One experiment has as its target T1, p31 protein (Mus musculus, UniProt Q99LB2).
T1 construct: endogenous in cells; host or cells: MIN6 (murine pancreatic beta cell line), digitonin-solubilized membrane fraction
T1 sequence (Q99LB2 20-279 limits assumed): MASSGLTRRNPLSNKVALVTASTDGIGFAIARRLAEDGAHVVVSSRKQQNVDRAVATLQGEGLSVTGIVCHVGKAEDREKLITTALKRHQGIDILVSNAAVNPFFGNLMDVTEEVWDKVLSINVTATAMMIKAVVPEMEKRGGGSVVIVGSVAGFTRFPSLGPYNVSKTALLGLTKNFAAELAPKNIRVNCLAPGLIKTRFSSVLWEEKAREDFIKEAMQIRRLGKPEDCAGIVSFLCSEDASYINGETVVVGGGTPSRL
Briefly: Inhibition of binding of p31 protein from MIN6 solubilized membrane fraction to Compound 155-immobilized particle (SDS-PAGE). The settings on record: 500 μmol/l tested substance, band on SDS-PAGE. Here is the method: The solubilized membrane fraction of MIN6 as prepared in Example 12 was 10-fold diluted with the buffer B. The compound represented by Compound No. 16 (hereinafter referred to as “Compound 16”) at 500 μmol/l was added to 1 ml of the resulting dilution and gently stirred at 4° C. for 2 hours. As a control, the solubilized membrane fraction of MIN6 without addition of the Compound 16 was 10-fold diluted with buffer C [20 mmol/l HEPES, pH 7.4, 2 mmol/l EDTA, 150 mmol/l NaCl, 1% digitonin, 1 mmol/l PMSF, 1 μg/ml aprotinin], and 1 ml of the resulting dilution was gently stirred at 4° C. for 2 hours. Then, a particle immobilizing a compound represented by Compound No. 155 (hereinafter referred to as “Compound 155-immobilized particle”) as prepared in Example 8 was added to the solubilized membrane fraction solution with addition of the Compound 16 and the solubilized membrane fraction solution without addition of any tested substance and gently stirred at 4° C. for 30 minutes. Subsequently, the resulting solutions were centrifuged (12,000 rpm, one minute, 4° C.) to precipitate the particle to thereby remove the supernatants. Then, 750 μl of the buffer C was added and stirred for 3 seconds, followed by centrifugation (12,000 rpm, one minute, 4° C.), to precipitate the particle to remove the supernatant. Then, 750 μl of buffer D [20 mmol/l HEPES, pH 7.4, 2 mmol/l EDTA] was added and stirred for 3 seconds, followed by centrifugation (12,000 rpm, one minute, 4° C.), to precipitate the particle to remove the supernatant. Subsequently, 30 μl of an SDS-polyacrylamide gel electrophoresis sample buffer containing β-mercaptoethanol was added to solubilize the protein binding to Compound 155-immobilized particle, followed by SDS-polyacrylamide gel electrophoresis. Through the purification from the cell extract solution by adding Compound 16 via Compound 155-immobilized particle, p31 protein in which its specific binding to Compound 155-immobilized particle was inhibited by the compound represented by Compound No. 16 was found. […]

For a further experiment, the target named is T2, His-p31 protein (Mus musculus, UniProt Q99LB2).
T2 construct: a gene part encoding the full-length p31 protein was prepared by polymerase chain reaction (PCR); made in house; host or cells: Escherichia coli BL21 / pET-14b-p31
T2 sequence (Q99LB2 20-279 limits assumed): T1 sequence (Q99LB2 20-279 limits assumed)
Briefly: Enzyme activity inhibition of His-p31 protein (NADPH decrease, p-chlorobenzaldehyde). The class given is biochemical. The following applies: p-chlorobenzaldehyde 250 μmol/l, NADPH 5 μmol/l, 37° C., absorbance at 340 nm. As for the experimental part:
NADPH was added to 1 ml of a solution of 10 mmol/Tris-HCl, 100 mmol/l NaCl and 2 mmol/l EDTA, pH 7.4 containing the His-p31 protein prepared in Example 12 at 1 μg/ml and p-chlorobenzaldehyde at 250 μmol/l to give a final concentration of 5 μmol/l and incubated at 37° C. Then, the NADPH decrease following the decomposition of p-chlorobenzaldehyde in the presence or absence of a tested substance was detected at the absorbance at 340 nm.

As to `CCCN1C(=O)N2C[C@@H](Cc3ccccc3)N=C2c2[nH]c(C3CCCC3)nc21` [compound 16], the entries for the “inhibition of the binding of the p31 protein to the Compound 155-immobilized particle” value at p31 protein and at p31 protein (listed as Compound No. 16) were “inhibits the binding of the p31 protein” and “inhibited”, respectively. For the same compound, the “enzyme activity inhibition of the His-p31 protein” value at His-p31 protein is on record as “strongly inhibited the activity of the protein”.
